Patent publication US9738634B2, “Heterocyclic amide compound and herbicide” (SYNGENTA PARTICIPATIONS AG, priority 2013, dated 2017)

What was measured:
Type in all cases: in vivo
crabgrass = test: Test Example 3: weedkilling efficacy through soil treatment; D: crabgrass; settings: soil treatment, treatment dosage 320 g/ha
Procedure, shortened: (§1)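 Crop and weed responses were judged three weeks after a uniform surface spray of the water-diluted emulsion at the given g/ha rate. Seeds sat beneath about 1.5 cm of sterilized diluvial soil, and boxes stood in a greenhouse at 25 to 30° C.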

fig-leafed goosefoot = test: Test Example 3: weedkilling efficacy through soil treatment; M: fig-leafed goosefoot; settings: soil treatment, treatment dosage 320 g/ha
Procedure, shortened: as §1

common wind-grass = test: Test Example 3: weedkilling efficacy through soil treatment; J: common wind-grass; settings: soil treatment, treatment dosage 320 g/ha
Procedure, shortened: as §1

bulrush [1] = test: Test Example 1: weedkilling efficacy, preemergent weed treatment in the submerged state; B: bulrush; settings: treatment dosage 320 g/ha
Procedure, shortened: (§2)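 Pre-emergence paddy test: weed seeds sown in submerged alluvial soil (4 cm water), 2.5-leaf rice transplanted, water-diluted emulsion applied to water surface at sowing at stated g/ha. Scored at 3 weeks, greenhouse 25–30 °C.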

barnyard grass [2] = test: Test Example 3: weedkilling efficacy through soil treatment; F: barnyard grass; settings: soil treatment, treatment dosage 320 g/ha
Procedure, shortened: as §1

wheat = test: Test Example 3: soil treatment, effect on crop; e: wheat; settings: soil treatment, treatment dosage 320 g/ha
Procedure, shortened: as §1

black-grass = test: Test Example 3: weedkilling efficacy through soil treatment; H: black-grass; settings: soil treatment, treatment dosage 320 g/ha
Procedure, shortened: as §1

Indian mallow = test: Test Example 3: weedkilling efficacy through soil treatment; K: Indian mallow; settings: soil treatment, treatment dosage 320 g/ha
Procedure, shortened: as §1

birds-eye speedwell = test: Test Example 3: weedkilling efficacy through soil treatment; p: birds-eye speedwell; settings: soil treatment, treatment dosage 320 g/ha
Procedure, shortened: as §1

corn = test: Test Example 3: soil treatment, effect on crop; c: corn; settings: soil treatment, treatment dosage 320 g/ha
Procedure, shortened: as §1

chickweed = test: Test Example 3: weedkilling efficacy through soil treatment; N: chickweed; settings: soil treatment, treatment dosage 320 g/ha
Procedure, shortened: as §1

Italian ryegrass = test: Test Example 3: weedkilling efficacy through soil treatment; I: Italian ryegrass; settings: soil treatment, treatment dosage 320 g/ha
Procedure, shortened: as §1

soybean = test: Test Example 3: soil treatment, effect on crop; d: soybean; settings: soil treatment, treatment dosage 320 g/ha
Procedure, shortened: as §1

directly sown rice = test: Test Example 3: soil treatment, effect on crop; b: directly sown rice; settings: soil treatment, treatment dosage 320 g/ha
Procedure, shortened: as §1

transplanted rice = test: Test Example 1: preemergent weed treatment in the submerged state, effect on crop; a: transplanted rice; settings: treatment dosage 320 g/ha
Procedure, shortened: as §2

oval-leafed pondweed [3] = test: Test Example 1: weedkilling efficacy, preemergent weed treatment in the submerged state; C: oval-leafed pondweed; settings: treatment dosage 320 g/ha
Procedure, shortened: as §2

rapeseed = test: Test Example 3: soil treatment, effect on crop; g: rapeseed; settings: soil treatment, treatment dosage 320 g/ha
Procedure, shortened: as §1

catchweed = test: Test Example 3: weedkilling efficacy through soil treatment; O: catchweed; settings: soil treatment, treatment dosage 320 g/ha
Procedure, shortened: as §1

barnyard grass [4] = test: Test Example 2: weedkilling efficacy, growth period weed treatment in the submerged state; A: barnyard grass; settings: treatment dosage 320 g/ha
Procedure, shortened: (§3)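 Seedlings at 1-2 leaves in 4 cm-deep submerged alluvial soil received emulsion formulations on the water surface, dosed per hectare; effects were judged 3 weeks on.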

oval-leafed pondweed [5] = test: Test Example 2: weedkilling efficacy, growth period weed treatment in the submerged state; C: oval-leafed pondweed; settings: treatment dosage 320 g/ha
Procedure, shortened: as §3

green foxtail = test: Test Example 3: weedkilling efficacy through soil treatment; E: green foxtail; settings: soil treatment, treatment dosage 320 g/ha
Procedure, shortened: as §1

beet = test: Test Example 3: soil treatment, effect on crop; f: beet; settings: soil treatment, treatment dosage 320 g/ha
Procedure, shortened: as §1

bulrush [6] = test: Test Example 2: weedkilling efficacy, growth period weed treatment in the submerged state; B: bulrush; settings: treatment dosage 320 g/ha
Procedure, shortened: as §3

wild oat = test: Test Example 3: weedkilling efficacy through soil treatment; G: wild oat; settings: soil treatment, treatment dosage 320 g/ha
Procedure, shortened: as §1

barnyard grass [7] = test: Test Example 1: weedkilling efficacy, preemergent weed treatment in the submerged state; A: barnyard grass; settings: treatment dosage 320 g/ha
Procedure, shortened: as §2

redroot pigweed = test: Test Example 3: weedkilling efficacy through soil treatment; L: redroot pigweed; settings: soil treatment, treatment dosage 320 g/ha
Procedure, shortened: as §1

Compound | D: crabgrass, weedkilling efficacy grade (crabgrass) | M: fig-leafed goosefoot, weedkilling efficacy grade (fig-leafed goosefoot) | J: common wind-grass, weedkilling efficacy grade (common wind-grass) | B: bulrush, weed kill grade (bulrush [1]) | F: barnyard grass, weedkilling efficacy grade (barnyard grass [2]) | e: wheat, effect on crop grade (wheat) | H: black-grass, weedkilling efficacy grade (black-grass) | K: Indian mallow, weedkilling efficacy grade (Indian mallow) | P: birds-eye speedwell, weedkilling efficacy grade (birds-eye speedwell) | c: corn, effect on crop grade (corn) | N: chickweed, weedkilling efficacy grade (chickweed) | I: Italian ryegrass, weedkilling efficacy grade (Italian ryegrass) | d: soybean, effect on crop grade (soybean) | b: directly sown rice, effect on crop grade (directly sown rice) | a: transplanted rice, effect on crop grade (transplanted rice) | C: oval-leafed pondweed, weed kill grade (oval-leafed pondweed [3]) | g: rapeseed, effect on crop grade (rapeseed) | O: catchweed, weedkilling efficacy grade (catchweed) | A (barnyard grass) weedkilling efficacy grade (barnyard grass [4]) | C (oval-leafed pondweed) weedkilling efficacy grade (oval-leafed pondweed [5]) | further results
CC(C)(C(=O)Nc1ccc(F)cn1)N1COCN(c2ccccc2)C1=O [A-2-04] | 3 (weed kill ratio 40% or more, less than 70%) | 0 (weed kill ratio 5% or less (practically no effect)) | 4 (weed kill ratio 70% or more, less than 90%) | 5 (weed kill ratio 90% or more, (practically complete withering)) | 3 (weed kill ratio 40% or more, less than 70%) | 0 (weed kill ratio 5% or less (practically no effect)) | 2 (weed kill ratio 20% or more, less than 40%) | 0 (weed kill ratio 5% or less (practically no effect)) | 0 (weed kill ratio 5% or less (practically no effect)) | 0 (weed kill ratio 5% or less (practically no effect)) | 2 (weed kill ratio 20% or more, less than 40%) | 3 (weed kill ratio 40% or more, less than 70%) | 0 (weed kill ratio 5% or less (practically no effect)) | 0 (weed kill ratio 5% or less (practically no effect)) | 0 (weed kill ratio 5% or less (practically no effect)) | 4 (weed kill ratio 70% or more, less than 90%) | 0 (weed kill ratio 5% or less (practically no effect)) | 0 (weed kill ratio 5% or less (practically no effect)) | 5 (weed kill ratio 90% or more, (practically complete withering)) | 4 (weed kill ratio 70% or more, less than 90%) | E: green foxtail, weedkilling efficacy grade (green foxtail): 3 (weed kill ratio 40% or more, less than 70%); f: beet, effect on crop grade (beet): 0 (weed kill ratio 5% or less (practically no effect)); B (bulrush) weedkilling efficacy grade (bulrush [6]): 5 (weed kill ratio 90% or more, (practically complete withering)); G: wild oat, weedkilling efficacy grade (wild oat): 0 (weed kill ratio 5% or less (practically no effect)); A: barnyard grass, weed kill grade (barnyard grass [7]): 4 (weed kill ratio 70% or more, less than 90%); L: redroot pigweed, weedkilling efficacy grade (redroot pigweed): 0 (weed kill ratio 5% or less (practically no effect))
Cc1nsc(NC(=O)C(C)(C)N2COCN(c3ccccc3)C2=O)n1 [A-1-18] | 5 (weed kill ratio 90% or more, (practically complete withering)) | 4 (weed kill ratio 70% or more, less than 90%) | 5 (weed kill ratio 90% or more, (practically complete withering)) | 5 (weed kill ratio 90% or more, (practically complete withering)) | 4 (weed kill ratio 70% or more, less than 90%) | 0 (weed kill ratio 5% or less (practically no effect)) | 5 (weed kill ratio 90% or more, (practically complete withering)) | 0 (weed kill ratio 5% or less (practically no effect)) | 4 (weed kill ratio 70% or more, less than 90%) | 0 (weed kill ratio 5% or less (practically no effect)) | 2 (weed kill ratio 20% or more, less than 40%) | 5 (weed kill ratio 90% or more, (practically complete withering)) | 4 (weed kill ratio 70% or more, less than 90%) | 5 (weed kill ratio 90% or more, (practically complete withering)) | 2 (weed kill ratio 20% or more, less than 40%) | 5 (weed kill ratio 90% or more, (practically complete withering)) | 4 (weed kill ratio 70% or more, less than 90%) | 0 (weed kill ratio 5% or less (practically no effect)) | 3 (weed kill ratio 40% or more, less than 70%) | 5 (weed kill ratio 90% or more, (practically complete withering)) | E: green foxtail, weedkilling efficacy grade (green foxtail): 5 (weed kill ratio 90% or more, (practically complete withering)); f: beet, effect on crop grade (beet): 1 (weed kill ratio 5% or more, less than 20%); B (bulrush) weedkilling efficacy grade (bulrush [6]): 5 (weed kill ratio 90% or more, (practically complete withering)); G: wild oat, weedkilling efficacy grade (wild oat): 4 (weed kill ratio 70% or more, less than 90%); A: barnyard grass, weed kill grade (barnyard grass [7]): 5 (weed kill ratio 90% or more, (practically complete withering)); L: redroot pigweed, weedkilling efficacy grade (redroot pigweed): 4 (weed kill ratio 70% or more, less than 90%)
CSc1nnc(NC(=O)C(C)(C)N2COCN(c3ccccc3)C2=O)s1 [A-1-15] | 0 (weed kill ratio 5% or less (practically no effect)) | 0 (weed kill ratio 5% or less (practically no effect)) | 5 (weed kill ratio 90% or more, (practically complete withering)) | 5 (weed kill ratio 90% or more, (practically complete withering)) | 0 (weed kill ratio 5% or less (practically no effect)) | 0 (weed kill ratio 5% or less (practically no effect)) | 1 (weed kill ratio 5% or more, less than 20%) | 0 (weed kill ratio 5% or less (practically no effect)) | 3 (weed kill ratio 40% or more, less than 70%) | 0 (weed kill ratio 5% or less (practically no effect)) | 0 (weed kill ratio 5% or less (practically no effect)) | 4 (weed kill ratio 70% or more, less than 90%) | 0 (weed kill ratio 5% or less (practically no effect)) | 0 (weed kill ratio 5% or less (practically no effect)) | 0 (weed kill ratio 5% or less (practically no effect)) | 5 (weed kill ratio 90% or more, (practically complete withering)) | 1 (weed kill ratio 5% or more, less than 20%) | 0 (weed kill ratio 5% or less (practically no effect)) | 3 (weed kill ratio 40% or more, less than 70%) | 5 (weed kill ratio 90% or more, (practically complete withering)) | E: green foxtail, weedkilling efficacy grade (green foxtail): 0 (weed kill ratio 5% or less (practically no effect)); f: beet, effect on crop grade (beet): 0 (weed kill ratio 5% or less (practically no effect)); B (bulrush) weedkilling efficacy grade (bulrush [6]): 5 (weed kill ratio 90% or more, (practically complete withering)); G: wild oat, weedkilling efficacy grade (wild oat): 0 (weed kill ratio 5% or less (practically no effect)); A: barnyard grass, weed kill grade (barnyard grass [7]): 4 (weed kill ratio 70% or more, less than 90%); L: redroot pigweed, weedkilling efficacy grade (redroot pigweed): 0 (weed kill ratio 5% or less (practically no effect))
